From PMC9735595, “Advanced EPI-X4 Derivatives Covalently Bind Human Serum Albumin Resulting in Prolonged Plasma Stability” (International Journal of Molecular Sciences, 2022)
Ends that are not written are not given here. Peptide text beside a SMILES is read from it. * marks the point of attachment. Cam = NC(=O)C*

What was measured:
CXCR4 = conditions: cited from earlier work
Text: In addition, both peptides contain a cystein ...

[1] = Half-life determination in plasma by mass spectrometry (LC-MS/MS); type: in vitro ADME, human; conditions: 37 °C, one-phase decay; for half-life in human plasma, mass spectrometry, samples diluted with 0.1% TFA / half-life at 7 µM: 7 µM in human plasma; for half-life in human plasma, mass spectrometry, samples diluted with 0.1% TFA: aliquots diluted in 0.1% TFA only, LC-MS/MS peak area of intact free peptide, triplicate; for half-life at 7 µM / half-life: both sexes, pooled K3 EDTA plasma, 3 rounds; for half-life at 7 µM: TFA samples ten-fold diluted with 50 mM NH4HCO3 + 10 mM DTT + 6M GuHCl before LC-MS/MS, read-out: half-life in human plasma, mass spectrometry, after GuHCl + DTT ("real" half-live); for half-life: human plasma, LC-MS/MS of intact peptide normalized to t = 0, sample treatment for the variants not stated, read-out: half-life in human plasma, mass spectrometry, peptides without a reactive Cys-thiol
Method: A 50 µL-aliquot of human plasma was spiked with 7 µM JM#21 or WSC02. The mixture was stirred for a few seconds and incubated at 37 °C. Five microliter aliquots were separated after 0, 5, 10, 20, 30, 45, 60, 90, and 120 min. Aliquots were immediately diluted with 1.5 mL 0.1% TFA and stored at −80 °C. The experiment was performed in triplicate. Additionally, for the measurement of denatured samples prior to MS measurement, all of the samples stored in 0.1% TFA were ten-fold diluted with 50 mM NH4HCO3 + 10 mM DTT + 6M GuHCl. A 15 uL-aliquot of every sample was used for mass spectrometry analysis as follows: samples were measured using an Orbitrap Elite Hybrid mass spectrometry system (Thermo Fisher Scientific, Bremen, Germany) online coupled to an U3000 RSLCnano (Thermo Fisher Scientific, Idstein, Germany) employing an Acclaim PepMap analytical column (75 μm × 500 mm, 2 μm, 100 Å, Thermo Fisher Scientific, Bremen, Germany) at a flow rate of 250 nL/min. Using a C18 μ-precolumn (0.3 mm × 5 mm, PepMap, Dionex LC Packings, Thermo Fisher Scientific, Bremen, Germany), samples were preconcentrated and washed with 0.1% TFA for 5 min at a flow rate of 30 μL/min. The subsequent separation was carried out using a binary solvent gradient consisting of solvent A (0.1% FA) and solvent B (86% ACN, 0.1% FA). The column was initially equilibrated in 5% B. In the first elution step, the percentage of B was raised from 5 to 15% in 5 min, followed by an increase from 15 to 40% B in 30 min. The column was washed with 95% B for 4 min and re-equilibrated with 5% B for 19 min. The mass spectrometer was equipped with a nanoelectrospray ion source and distal-coated SilicaTips (FS360-20-10-D, New Objective, Woburn, MA, USA). The instrument was externally calibrated using standard compounds (LTQ Velos ESI Positive Ion Calibration Solution, Pierce, Thermo Scientific, Rockford, IL, USA). The system was operated using the following parameters: spray voltage, 1.5 kV; capillary temperature, 250 °C; S-lens RF level, 68.9%. XCalibur 2.2 SP1.48 (Thermo Fisher Scientific, Bremen, Germany) was used for data-dependent tandem mass spectrometry (MS/MS) analyses. Full scans ranging from m/z 370 to 1700 were acquired in the Orbitrap at a resolution of 30,000 (at m/z 400) with automatic gain control (AGC) enabled and set to 106 ions and a maximum fill time of 500 ms. Up to 20 multiply-charged peptide ions were selected from each survey scan for collision-induced fragmentation (CID) in the linear ion trap using AGC set to 10,000 ions and a maximum fill time of 100 ms. For MS/MS fragmentation, normalized collision energy of 35% with an activation q of 0.25 and an activation time of 30 ms was used.
For visualization in the XCalibur Qual Browser 2.0 (Thermo Fisher Scientific, Bremen, Germany), extracted ion xhromatograms (XICs) of the most intense isotope (±20 ppm), as theoretically predicted, at z = 3 or z = 4 were calculated. Using default parameters within the QualBrowser, peak areas were calculated and exported. Half-lives were determined by fitting the data (peak area vs. time) to a one-phase exponential decay model using GraphPad Prism 8.4.3 (GraphPad Prism Software LLC, San Diego, CA, USA).
(§1) The influence of several reagents on peptide detection was tested with aliquots separated (peptide + plasma, 300-fold diluted in 0.1%TFA) at t = 10 min. The aliquots were analyzed by LC-MS/MS, as previously described, after 10-fold dilution in 0.1% TFA, 6M GuHCl, 50 mM NH4HCO3 + 10 mM DTT, and 50 mM NH4HCO3 + 10 mM DTT + 6M GuHCl, respectively.
(§2) SupT1 cells were cultured in RPMI supplemented with 10% FCS, 100 units/mL penicillin, 100 µg/mL streptomycin, 2 mM L-glutamine, and 1 mM HEPES (Gibco). Blood was collected from healthy donors (male and female, average age 28 years) using S-Monovettes K3 EDTA (Sarstedt). Plasma was obtained by centrifugation of whole blood at 2.500× g for 15 min. Plasma of 6 donors was pooled and stored at −80 °C.

[2] = target: T1, human serum albumin (HSA) (Homo sapiens, UniProt P02768); assay: Interaction with plasma components: size-exclusion fractionation and tryptic digestion of spiked plasma, LC-MS/MS; type: in vitro ADME; conditions: plasma spiked with peptide, 37 °C, 10 min; SEC fractions treated with DTT + GuHCl; tryptic digest LC-MSMS
T1 construct: from tissue; host or cells: human plasma
T1 sequence (P02768 25-609): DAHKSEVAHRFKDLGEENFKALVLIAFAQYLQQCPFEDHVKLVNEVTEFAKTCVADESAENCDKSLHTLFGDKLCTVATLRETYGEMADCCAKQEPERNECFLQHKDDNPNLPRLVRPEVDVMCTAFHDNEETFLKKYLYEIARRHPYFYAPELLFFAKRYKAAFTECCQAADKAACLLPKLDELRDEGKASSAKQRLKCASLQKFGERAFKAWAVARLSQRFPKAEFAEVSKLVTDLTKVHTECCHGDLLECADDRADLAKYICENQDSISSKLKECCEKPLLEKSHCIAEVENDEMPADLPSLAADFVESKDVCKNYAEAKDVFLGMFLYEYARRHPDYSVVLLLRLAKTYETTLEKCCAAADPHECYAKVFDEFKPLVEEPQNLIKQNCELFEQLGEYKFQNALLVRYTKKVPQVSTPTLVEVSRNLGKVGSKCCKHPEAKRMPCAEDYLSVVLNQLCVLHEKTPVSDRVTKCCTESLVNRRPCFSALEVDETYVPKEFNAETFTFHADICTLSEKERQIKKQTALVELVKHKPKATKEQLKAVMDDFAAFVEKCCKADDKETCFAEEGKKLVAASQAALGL
Method: as §1
A 5 µL aliquot of the peptides in plasma, after incubation at 37 °C for 10 min, was injected into a size-exclusion column Yarra SEC-2000 (Phenomenex, CA, USA) of dimensions 7.8 × 300 mm, 3 µm particle size. The separation was done at a flow rate of 0.5 mL/min using a buffer composed of 25 mM NaH2PO4 + 25 mM Na2HPO4 + 250 mM KCl (pH 6.65). Fractions were collected every one minute, and then analyzed by mass spectrometry in denaturing conditions (1/10 in 50 mM NH4HCO3 + 10 mM DTT + 6M GuHCl) as previously described.
A 5 µL aliquot of plasma spiked with WSC02 or JM#21 was mixed with trypsin (50:1) and incubated at 37 degrees for 16 h. Half of the digested sample was reduced and carbamidomethylated, as described above. The digested samples, both unmodified and carbamidomethylated, were analyzed by mass spectrometry, as previously described in this section.

[3] = Functional plasma stability assay (remaining activity in CXCR4 antibody competition after incubation in plasma); type: in vitro ADME, human; conditions: 37 °C; for half-life in human plasma, functional assay: 20 µM in 100% pooled human K3 EDTA plasma (6 donors), aliquots serially diluted in cold PBS, 12G5-APC competition on SupT1 cells, 2 h at 4 °C, flow cytometry, activity = IC50(t)/IC50(t=0) x 100, one-phase decay, 3 rounds of plasma incubation
Method: For the functional assay, WSC02 (a) or JM#21 (b) were spiked into human plasma and incubated at 37 °C. At indicated time points, aliquots were taken and serially diluted in cold PBS. […] After 2 h, unbound antibody was removed, and cells were analyzed by flow cytometry. Remaining activity was determined described before. For detection by mass spectrometry, WSC02 (a) or JM#21 (b) were spiked into plasma and incubated at 37 °C. and analyzed in LC-MS/MS. Half-lives were calculated using a one-phase decay model in GraphPad Prism. Curve fits are shown as dashed lines. Data shown are derived from 3 individual rounds of plasma incubation ± SEM.
as §2
Competition of compounds with an APC-labeled antibody specific for ECL2 of CXCR4 (clone 12G5) was performed in SupT1 cells as described. For this, cells (without buffer) were precooled at 4 °C and a serial dilution of compounds in PBS together with a constant concentration of antibody diluted in buffer (PBS with 1% FCS) was added. After 2 h at 4 °C, unbound antibody was removed and cells analyzed in flow cytometry (CytoFLEX, Beckman Coulter). Mean fluorescence signals (MFI) in the presence of PBS only was set 100%. Isotype control was set 0%. Half-maximal inhibitory concentrations (IC50) were calculated in GraphPad Prism by nonlinear regression.
Decrease in CXCR4-binding activity after incubation of compounds in human plasma was determined to calculate functional stability as described (Harms et al. 2020). For this purpose, the peptides were dissolved at a concentration of 20 µM in 100% plasma. The first aliquot (t = 0) was immediately taken and stored at −80 °C. Aliquots were taken at given time points and also stored. To determine CXCR4 binding, all aliquots were thawed together and serially diluted in ice-cold PBS and subsequently, antibody competition was performed as described before. IC50 at t = 0 defined as 100% activity and decrease in activity was calculated by IC50 (t)/IC50 (t = 0) × 100. Half-lives were determined by one-phase decay using GraphPad Prism.

[4] = human plasma, antibody competition read-out, 3 rounds
[5] = human plasma, 30 min, antibody competition read-out, 3 rounds

| Molecule | higher antagonistic activity as compared with EPI-X4 (CXCR4) [fold] | half-life in human plasma, mass spectrometry, samples diluted with 0.1% TFA [1] [min] | half-life at 7 µM [1] [min] | interaction with human serum albumin in plasma (in words) [2] | half-life in human plasma, functional assay [3] [min] | half-life in human plasma, functional assay ([3]; listed as JM#21) [min] | activity decreased by (loss of activity) after 15 min in plasma [3, 4] [%] | remaining activity after 30 min in plasma [3, 5] [%] | half-life [1] [min] | activity reduced by (loss of activity) after 30 min in plasma [3, 5] [%] | half-life in human plasma, functional assay ([3]; listed as WSC02) | remaining activity after 60 min in plasma ([3]; human plasma, 60 min, antibody competition read-out, 3 rounds) [%] |
| --- | --- | --- | --- | --- | --- | --- | --- | --- | --- | --- | --- | --- |
| CC[C@H](C)[C@H](N)C(=O)N[C@@H](CC(C)C)C(=O)N[C@@H](CCCNC(=N)N)C(=O)N[C@@H](Cc1c[nH]c2ccccc12)C(=O)N[C@@H](CO)C(=O)N[C@@H](CCCNC(=N)N)C(=O)N[C@@H](CCCCN)C(=O)N[C@@H](CC(C)C)C(=O)N1CCC[C@H]1C(=O)N[C@@H](CS)C(=O)N[C@H](C(=O)N[C@@H](CO)C(=O)O)C(C)C [EPI-X4 JM#21] | ~300 | 1.7 | 5 | forming a disulfide bridge with a free thiol group (Cys34) on HSA | 6 | ~6 | 69 | 10 |  |  |  |  |
| CC[C@H](C)[C@H](N)C(=O)N[C@@H](CC(C)C)C(=O)N[C@@H](CCCNC(=N)N)C(=O)N[C@@H](Cc1c[nH]c2ccccc12)C(=O)N[C@@H](CO)C(=O)N[C@@H](CCCNC(=N)N)C(=O)N[C@@H](CCCCN)C(=O)N[C@@H](CC(C)C)C(=O)N1CCC[C@H]1C(=O)N[C@@H](CSCC(N)=O)C(=O)N[C@H](C(=O)N[C@@H](CO)C(=O)O)C(C)C [JM#21 Cdm] |  |  |  |  | 3 |  | 95 |  | 3 |  |  |  |
| CC[C@H](C)[C@H](N)C(=O)N[C@H](C(=O)N[C@@H](CCCNC(=N)N)C(=O)N[C@@H](Cc1c[nH]c2ccccc12)C(=O)N[C@@H](CO)C(=O)N[C@@H](CCCCN)C(=O)N[C@@H](CCCCN)C(=O)N[C@H](C(=O)N1CCC[C@H]1C(=O)N[C@@H](CSCC(N)=O)C(=O)N[C@H](C(=O)N[C@@H](CO)C(=O)O)C(C)C)C(C)C)C(C)C [WSC02 Cdm] (H-IVRWSKKVPC(Cam)VS-OH) |  |  |  |  | 6 |  |  |  | 5 | 93 |  |  |
| ILRWSRKLPSVS [JM#21 C10S] |  |  |  |  | 4 |  | 91 |  | 4 |  |  |  |
| IVRWSKKVPCVS [EPI-X4 WSC02] |  | 0.7 | 6 | forming a disulfide bridge with a free thiol group (Cys34) on HSA | 9 |  |  |  |  |  | about 9 min | 20 |
| IVRWSKKVPSVS [WSC02 C10S] |  |  |  |  | 7 |  |  |  | 4 | 92 |  |  |
